According to US8815893B2, “Hetarylaminonaphthyridines” (Merck Patent GmbH, priority 2010, dated 2014):

Legend:
GST-ALK5 = target: T1, GST-ALK5 (Homo sapiens, UniProt P36897); experiment: In-vitro (enzyme) kinase assay, 384-well flashplate (example 14); format: biochemical; settings: GST-ALK5, GST-SMAD2 substrate, 33P-ATP flashplate, 30° C. 45 min; IC50 classes; read-out: TβR activity (example 14)
T1 sequence (P36897 34-503): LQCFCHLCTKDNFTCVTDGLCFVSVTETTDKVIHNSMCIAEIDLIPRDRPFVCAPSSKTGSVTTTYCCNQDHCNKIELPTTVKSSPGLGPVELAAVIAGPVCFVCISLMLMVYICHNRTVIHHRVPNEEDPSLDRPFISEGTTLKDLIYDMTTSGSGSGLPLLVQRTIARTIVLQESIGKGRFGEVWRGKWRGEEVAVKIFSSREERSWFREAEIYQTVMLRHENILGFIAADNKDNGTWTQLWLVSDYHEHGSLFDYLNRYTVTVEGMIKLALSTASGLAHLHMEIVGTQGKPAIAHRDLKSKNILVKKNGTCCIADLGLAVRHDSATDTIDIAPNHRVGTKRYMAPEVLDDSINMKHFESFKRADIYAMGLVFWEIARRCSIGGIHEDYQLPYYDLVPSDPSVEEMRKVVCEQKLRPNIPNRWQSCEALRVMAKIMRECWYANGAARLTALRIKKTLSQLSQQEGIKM
Protocol: In-Vitro (Enzyme) Assay for Determination of the Efficacy of Inhibitors of the Inhibition of TGF-Beta-Mediated Effects
The kinase assay was carried out as 384-well flashplate assay. 31.2 nM of GST-ALK5, 439 nM of GST-SMAD2 and 3 mM of ATP (with 0.3 μCi of ^33P-ATP/well) were incubated in a total volume of 35 μl (20 mM of HEPES, 10 mM of MgCl2, 5 mM of MnCl2, 1 mM of DTT, 0.1% of BSA, pH 7.4) without or with test substance (5-10 concentrations) at 30° C. for 45 min. The reaction was stopped using 25 μl of 200 mM EDTA solution, filtered with suction at room temperature after 30 min, and the wells were washed with 3 times 100 μl of 0.9% NaCl solution. Radioactivity was measured in the TopCount. The IC50 values were calculated using RS1. Above and below, all temperatures were indicated in ° C.

[1] = test system: lung epithelial cell line Mv1Lu; experiment: Cellular assay for TGF-beta receptor I kinase inhibitors: elimination of TGF-beta-mediated growth inhibition (example 13); format: cell-based; settings: 48 h; Mv1Lu cells, 1 ng/ml TGF-beta, 0.5% FCS, two days, Crystal Violet staining; read-out: TβR activity (example 13)
Protocol: Cellular Assay for Testing TGF-Beta Receptor I Kinase Inhibitors
As an example, the ability of the inhibitors to eliminate TGF-beta-mediated growth inhibition was tested. Cells of the lung epithelial cell line Mv1Lu were sown in a defined cell density in a 96-well microtiter plate and cultivated overnight under standard conditions. Next day, the medium was replaced by medium which comprises 0.5% of FCS and 1 ng/ml of TGF-beta, and the test substances were added in defined concentrations, generally in the form of dilution series with 5 fold steps. The concentration of the solvent DMSO was constant at 0.5%. After a further two days, Crystal Violet staining of the cells was carried out. After extraction of the Crystal Violet from the fixed cells, the absorption was measured spectrophotometrically at 550 nm. It could be used as a quantitative measure of the adherent cells present and thus of the cell proliferation during the culture.

| SMILES | IC50 (GST-ALK5) [nM] | IC50 [1] [nM] |
| --- | --- | --- |
| Fc1ccc(Cl)cc1-c1cc(Cc2ccncc2)c2cccnc2n1 [compound 75] | 1000 to 10000 | > 10000 |
| Cc1cccc(-c2cc(-n3nc(C)c4cnccc43)c3cccnc3n2)n1 [compound 77] | < 100 | 1000 to 10000 |
| OCc1cnccc1Nc1cc(-c2cc(F)ccc2F)nc2ncccc12 [compound 78] | < 100 | < 100 |
| CCOc1ccc(Cl)cc1-c1cc(Nc2ccnc(NC(C)=O)c2)c2cccnc2n1 [compound 79] | 100 to 1000 | 100 to 1000 |
| Cc1cccc(-c2cc(Nc3ccncc3Cl)c3cccnc3n2)n1 [compound 80] | < 100 | < 100 |
| Cc1cccc(-c2cc(Nc3ccncc3CO)c3cccnc3n2)n1 [compound 81] | < 100 | 100 to 1000 |
| Cc1cccc(-c2cc(Nc3ccnc(Cl)c3)c3cccnc3n2)n1 [compound 83] | 100 to 1000 | 1000 to 10000 |
| Cc1cccc(-c2cc(Nc3cc(F)nc(N4CCOCC4)n3)c3cccnc3n2)n1 [compound 84] | > 10000 | > 10000 |
| Cc1cccc(-c2cc(Nc3ccnc(NC(N)=O)c3)c3cccnc3n2)n1 [compound 85] | < 100 | 100 to 1000 |
| Nc1cc(Nc2cc(-c3ccccc3F)nc3ncccc23)ncn1 [compound 86] | < 100 | 100 to 1000 |
| CC(=O)Nc1cc(Nc2cc(-c3ccccc3F)nc3ncccc23)ncn1 [compound 88] | < 100 | 100 to 1000 |
| CC(=O)Nc1cc(Nc2cc(-c3cc(F)ccc3F)nc3ncccc23)ncn1 [compound 89] | < 100 | < 100 |
| CNc1nccc(Nc2cc(-c3cccc(C)n3)nc3ncccc23)n1 [compound 90] | < 100 | 100 to 1000 |
| NCCC(=O)Nc1cc(Nc2cc(-c3cc(Cl)ccc3F)nc3ncccc23)ncn1 [compound 94] | < 100 | < 100 |
| Fc1ccccc1-c1cc(-n2ccc3cncnc32)c2cccnc2n1 [compound 96] | 100 to 1000 | 1000 to 10000 |
| CC(C)NC(=O)c1cnccc1Nc1cc(-c2cc(Cl)ccc2F)nc2ncccc12 [compound 99] | < 100 | < 100 |
| Cc1nn(-c2cc(-c3cc(F)ccc3F)nc3ncccc23)c2ccncc12 [compound 100] | < 100 | 100 to 1000 |
| CC(C)(C)C(=O)Nc1cc(Nc2cc(-c3cc(Cl)ccc3F)nc3ncccc23)ncn1 [compound 101] | 100 to 1000 | 1000 to 10000 |
| CC(C)(C)CC(=O)Nc1cc(Nc2cc(-c3cc(Cl)ccc3F)nc3ncccc23)ncn1 [compound 104] | < 100 | < 100 |

| SMILES | IC50 (GST-ALK5) [nM] | IC50 [1] [nM] |
| --- | --- | --- |
| CC(C)(C)CC(=O)Nc1cc(Nc2cc(-c3cc(F)ccc3F)nc3ncccc23)ncn1 [compound 105] | < 100 | 100 to 1000 |
| Nc1cc(Nc2cc(-c3cc(F)ccc3F)nc3ncccc23)ncn1 [compound 106] | < 100 | 100 to 1000 |
| CC(C)(N)CC(=O)Nc1cc(Nc2cc(-c3cc(F)ccc3F)nc3ncccc23)ncn1 [compound 107] | < 100 | < 100 |
| COC(=O)c1nccc2c1ccn2-c1cc(-c2cc(Cl)ccc2F)nc2ncccc12 [compound 108] | 100 to 1000 | 1000 to 10000 |
| CC(C)(C)OC(=O)NCC(=O)Nc1cc(Nc2cc(-c3cc(Cl)ccc3F)nc3ncccc23)ncn1 [compound 109] | < 100 | < 100 |
| CN(C)CC(=O)Nc1cc(Nc2cc(-c3cc(Cl)ccc3F)nc3ncccc23)ncn1 [compound 112] | < 100 | < 100 |
| CN1CCC(NC(=O)c2cnccc2Nc2cc(-c3cc(F)ccc3F)nc3ncccc23)CC1 [compound 113] | < 100 | < 100 |
| CC(C)(C)CC(=O)Nc1cc(Nc2cc(-c3ccccc3F)nc3ncccc23)ncn1 [compound 114] | < 100 | 100 to 1000 |
| CN1CCC(C(=O)Nc2cc(Nc3cc(-c4ccccc4F)nc4ncccc34)ncn2)CC1 [compound 115] | < 100 | 100 to 1000 |
| COC(=O)c1cc(Nc2cc(-c3cc(F)ccc3F)nc3ncccc23)ccn1 [compound 116] | 1000 to 10000 | > 10000 |
| CN1CCC(C(=O)Nc2cc(Nc3cc(-c4cc(F)ccc4F)nc4ncccc34)ncn2)CC1 [compound 117] | < 100 | < 100 |
| CNC(=O)c1cc(Nc2cc(-c3cc(F)ccc3F)nc3ncccc23)ccn1 [compound 118] | 100 to 1000 | 1000 to 10000 |
| CN(C)CCNC(=O)c1cc(Nc2cc(-c3cc(F)ccc3F)nc3ncccc23)ccn1 [compound 119] | 1000 to 10000 | > 10000 |
| O=C(NCCN1CCCC1)c1cc(Nc2cc(-c3cc(F)ccc3F)nc3ncccc23)ccn1 [compound 122] | 1000 to 10000 | > 10000 |
| Cc1ccc(-c2cc(Nc3ccncc3)c3cccnc3n2)o1 [compound 123] | 100 to 1000 | 100 to 1000 |
| CC(C)(C)CCNc1cc(Nc2cc(-c3cc(Cl)ccc3F)nc3ncccc23)ncn1 [compound 126] | 100 to 1000 | 100 to 1000 |
| CCOC(=O)c1cc(Nc2cc(-c3cc(F)ccc3F)nc3ncccc23)ccn1 [compound 128] | > 10000 | > 10000 |
| Fc1ccc(F)c(-c2cc(-n3ccc4cnccc43)c3cccnc3n2)c1 [compound 129] | < 100 | 100 to 1000 |
| CCOC(=O)NCC(=O)Nc1cc(Nc2cc(-c3cc(Cl)ccc3F)nc3ncccc23)ncn1 [compound 130] | < 100 | < 100 |

The next lines start with results.

| IC50 (GST-ALK5) [nM] | SMILES | IC50 [1] [nM] |
| --- | --- | --- |
| 100 to 1000 | Oc1nccc(Nc2cc(-c3cc(Cl)ccc3F)nc3ncccc23)n1 [compound 76] | 1000 to 10000 |
| < 100 | O=C(CO)Nc1cc(Nc2cc(-c3cc(Cl)ccc3F)nc3ncccc23)ccn1 [compound 82] | < 100 |
| < 100 | CC(C)(C)CC(=O)Nc1cc(Nc2cc(-c3cc(Cl)ccc3F)nc3ncccc23)ccn1 [compound 87] | < 100 |
| < 100 | CCCC(=O)Nc1cc(Nc2cc(-c3cc(Cl)ccc3F)nc3ncccc23)ccn1 [compound 91] | < 100 |
| < 100 | CC(C)C(=O)Nc1cc(Nc2cc(-c3cc(Cl)ccc3F)nc3ncccc23)ncn1 [compound 92] | < 100 |
| > 10000 | CN1CCN(c2nccc(Nc3cc(-c4cc(Cl)ccc4F)nc4ncccc34)n2)CC1 [compound 93] | > 10000 |
| < 100 | CN1CCC(NC(=O)c2cnccc2Nc2cc(-c3cc(Cl)ccc3F)nc3ncccc23)CC1 [compound 95] | < 100 |
| 1000 to 10000 | Fc1ccc(Cl)cc1-c1cc(Nc2ccnc(-c3cccnc3)n2)c2cccnc2n1 [compound 97] | > 10000 |
| < 100 | CC(=O)Nc1nccc(Nc2cc(-c3cc(Cl)ccc3F)nc3ncccc23)n1 [compound 98] | < 100 |
| > 10000 | O=C(CCN1CCNCC1)Nc1cc(Nc2cc(-c3cc(Cl)ccc3F)nc3ncccc23)ncn1 [compound 102] | > 10000 |
| 100 to 1000 | Fc1ccc(F)c(-c2cc(Nc3cc(Cl)ncn3)c3cccnc3n2)c1 [compound 103] | > 10000 |
| < 100 | NCC(=O)Nc1cc(Nc2cc(-c3cc(Cl)ccc3F)nc3ncccc23)ncn1 [compound 110] | < 100 |
| < 100 | CN1CCC(C(=O)Nc2cc(Nc3cc(-c4cc(Cl)ccc4F)nc4ncccc34)ncn2)CC1 [compound 111] | < 100 |
| 100 to 1000 | CN(C)CCNc1cc(Nc2cc(-c3cc(Cl)ccc3F)nc3ncccc23)ncn1 [compound 120] | 100 to 1000 |
| < 100 | CN(C)c1cc(Nc2cc(-c3cc(Cl)ccc3F)nc3ncccc23)ncn1 [compound 121] | < 100 |
| 1000 to 10000 | Fc1ccc(Cl)cc1-c1cc(Nc2cc(NC3CCCCC3)ncn2)c2cccnc2n1 [compound 124] | > 10000 |
| < 100 | Fc1ccc(F)c(-c2cc(Nc3ccnc(Cl)c3)c3cccnc3n2)c1 [compound 125] | 1000 to 10000 |
| 1000 to 10000 | CCN1CCC(Nc2cc(Nc3cc(-c4cc(Cl)ccc4F)nc4ncccc34)ncn2)CC1 [compound 127] | 1000 to 10000 |
